Reference: a melting point compilation (Tetko et al.)

| Compound | melting point [°C] |
| --- | --- |
| Oc1ccc(-c2nc3cc(Cl)ccc3s2)cc1 | 263 to 265 |
| CC(Cl)C(=O)NC1CCOc2ccccc21 (stereo unspecified) | 129 to 131 |
| O=[N+]([O-])c1cccc2c1NCCC2 | 69 to 71 |
| Nc1ccc(Oc2cccc(F)c2)cc1 | 72 to 74 |
| Cn1c(S)nnc1Cc1cccs1 | 157 to 161 |
| CC1(n2cc(C=O)cn2)CCS(=O)(=O)C1 (stereo unspecified) | 84 to 86 |
| CCS(=O)(=O)c1ccc(CN)cc1 | 51 to 53 |
| Cc1ccc(NS(=O)(=O)c2ccc(NN)c([N+](=O)[O-])c2)c(C)c1 | 215 to 217 |
| Nc1cc(Br)ccc1S(N)(=O)=O | 142 to 144 |
| O=C(NCc1cn[nH]c1)OCc1ccccc1 | 126 to 128 |
| COc1cc(I)c(Cl)cc1C(=O)O | 141 to 143 |
| O=C(O)c1c[nH]nc1-c1cccc(Cl)c1 | 251 to 253 |
| O=C(O)c1noc(-c2cc(Cl)ccc2F)n1 | 113 to 115 |
| CC(C)(C)c1ccc2c(c1)C(O)CC2 (stereo unspecified) | 73 to 75 |
| COC(=O)COc1ccc(N)c(C)c1 | 104 to 106 |
| O=C(Cc1ccccc1)NC1CCNCC1 | 139 to 141 |
| CC(O)(c1ccc(O)cc1)C(F)(F)F (stereo unspecified) | 118 to 120 |
| CCc1cccc2c(C(=O)O)c[nH]c12 | 193 to 195 |
| Nc1nc(Cl)ccc1C(=O)O | 216 to 218 |
| CS(=O)(=O)c1ccc(N)cc1F | 116 to 118 |
| CC(C)c1nn(-c2ccccc2)cc1C=O | 59 to 61 |
| CC(C)(C)OC(=O)NC1(CO)CC1 | 75 to 77 |
| Nc1nnn(Cc2ccccc2)n1 | 183 to 185 |
| C#CCNC(=O)Nc1ccccc1Cl | 173 to 175 |

| Compound | melting point [°C] |
| --- | --- |
| Cc1ccn2c(N)c(-c3cccs3)nc2c1 | 223 to 225 |
| CNC(=O)c1n[nH]c(=O)c2ccccc12 | 283 to 285 |
| O=C(O)c1ccc(NC(=O)c2ccccc2)cc1 | 297 to 299 |
| Cc1ccc2cccc(S(=O)(=O)Cl)c2n1 | 113 to 115 |
| CCCc1ccc(C(=O)COc2ccc(C=O)cc2OC)cc1 | 73 to 75 |
| NS(=O)(=O)c1ccc(C(F)(F)F)cn1 | 174 to 176 |
| Cc1c(NC(=O)CSCC(=O)O)c(=O)n(-c2ccccc2)n1C | 180 to 182 |
| Nc1nn2cc(-c3ccccc3)nc2c2ccccc12 | 215 to 217 |
| CN1CCN(c2nccc(Cl)n2)CC1 | 94 to 96 |
| N#Cc1nc(-c2ccccc2)oc1NN | 209 to 211 |
| CC1(C)CCCCC1CC(=O)O (stereo unspecified) | 41 to 43 |
| CCc1cccc(Oc2ccc(F)cc2C=CC(=O)O)c1 | 106 to 108 |
| O=c1[nH]c2ccccc2cc1CO | 239 to 241 |
| Nc1ccc(C(=O)NCCN2CCOCC2)cc1 | 157 to 159 |
| CNC(=O)COc1ccc(C(=O)O)cc1OC | 221 to 223 |
| O=C(O)CNC(=O)c1cccc(OCc2ccccc2)c1 | 185 to 187 |
| O=C(O)c1cccnc1N1CCCCC1 | 94 to 96 |
| Cc1ccc(C(=O)O)cc1S(=O)(=O)N1CCOCC1 | 176 to 178 |
| COc1cc(F)c(S(=O)(=O)Cl)c(F)c1 | 53 to 55 |
| COc1ccccc1Nc1ccc(N)cc1 | 73 to 75 |
| O=S(=O)(Nc1nc2ccccc2nc1Cl)c1ccccc1 | 172 to 174 |
| COC(=O)c1c[nH]c2ncccc12 | 208 to 210 |
| Cc1cccc(N)c1C(N)=O | 141 to 143 |
| Cc1nnc(-c2cccc([N+](=O)[O-])c2)o1 | 158 to 160 |

| Compound | melting point [°C] |
| --- | --- |
| N#CCc1nc(-c2c(F)cccc2F)cs1 | 75 to 77 |
| CCC(=O)Nc1ccc(C(=O)CCl)cc1 | 104 to 106 |
| N#Cc1cc(N)c(Cl)c([N+](=O)[O-])c1 | 205 to 207 |
| COC(=O)c1ccc(CN2CCC(CO)CC2)cc1 | 54 to 56 |
| Cc1cc(N)nn1-c1ccc(F)cc1F | 120 to 122 |
| CCOc1ccc2oc(C(=O)O)c(C)c2c1 | 155 to 165 |
| Cc1ncccc1C(=O)O | 231 to 232 |
| CNC(=O)c1cccc(CCC(=O)O)c1 | 119 to 121 |
| CC(C)(C)OC(=O)NC1CCN(Cc2cc(Cl)cc(Cl)c2)CC1 | 145 to 147 |
| CC(C)N1C2CCC1CC(O)C2 (stereo unspecified) | 90 to 92 |
| CN1CCCc2ccc(S(=O)(=O)Cl)cc21 | 64 to 66 |
| Cc1cccc2c1OCC2=O | 83 to 85 |
| CCc1sc(=O)[nH]c1-c1ccccc1 | 136 to 138 |
| COC(=O)Cn1cnc2cc(F)ccc2c1=O | 144 to 146 |
| Cc1ccc(Br)cc1NC(=O)CN | 141 to 143 |
| O=C(O)CCC(=O)c1ccc2c(c1)-c1ccccc1C2 | 189 to 191 |
| CCCNS(=O)(=O)c1ccc(/C=C/C(=O)O)cc1 | 235 to 237 |
| COc1ccc(Cl)cc1-n1cc(S(=O)(=O)Cl)cn1 | 89 to 91 |
| Cn1c(N)c(C(=O)CC#N)c(=O)n(C)c1=O | 260 to 262 |
| Sc1ncnc2ccsc12 | 271 to 273 |
| COc1ccc(O)c(C(=O)c2ccccc2)c1 | 81 to 83 |
| Cc1ncc(C(=O)O)c(Cl)c1Br | 152 to 154 |
| Cc1cc(O)cc(C(=O)O)c1 | 205 to 207 |
